Test [1] has as its system TAZ-DEP MCF10A-TAZ tumor cells. In words: cell viability relative to DMSO control; higher = less cytotoxic; extreme values may be limits of the assay. The following applies: 72 h. As to the method:
(§1)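 TAZ-dependent (grown with 2 ug/ml dox) and TAZ-independent MCF10A-TAZ tumor-derived breast cancer stem-like cells were plated in 384-well plates and treated with serially diluted compounds (0.65-10 uM) for 72 h. Viability was read by resazurin assay and expressed as % of DMSO-treated control.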

Test [2] has as its system TAZ-IND MCF10A-TAZ tumor cells. The description is as above. The following applies: 72 h. As to the method:
as §1

Turning to `O=C([C@@H](Cc1cccc(C(F)(F)F)c1)NS(=O)(=O)c1cc(F)c2c(c1)CCNC2)N1CCCC1` [PFI-2], the cell viability – broadly, a read-out of living cells in per cent, often relative to untreated cells – in test [1] (0.65 µM) turned out to be 94%; in test [1] (1.25 µM) it was 85%; in test [1] (2.5 µM), 72%; in test [1] (5 µM) it was 56%; in test [1] (10 µM), 46%; in test [2] (0.65 µM), 97%. The cell viability in test [2] (1.25 µM) came to 94%; in test [2] (2.5 µM), 92%; in test [2] (5 µM), 85%; in test [2] (10 µM) it was 78%.
For the molecule `NCCCC[C@@H]1NC(=O)[C@@H](Cc2ccc(O)cc2)NC(=O)[C@H](CC(=O)O)NC(=O)CNC(=O)[C@H](CCCN=C(N)N)NC1=O` [Cyclo(RGDyK)], the cell viability in test [1] (0.65 µM) came to 99%; in test [1] (1.25 µM), 86%; in test [1] (2.5 µM), 59%; in test [1] (5 µM), 49%; in test [1] (10 µM) it was 27%; in test [2] (0.65 µM) it was 98%. The cell viability in test [2] (1.25 µM) worked out at 94%; in test [2] (2.5 µM), 86%; in test [2] (5 µM) it was 74%; in test [2] (10 µM) it was 65%.
Take `Nc1nc(OCc2cc(Br)cs2)c2[nH]cnc2n1` [Lomeguatrib]: the cell viability in test [1] (0.65 µM) is 96%; in test [1] (1.25 µM) it was 91%; in test [1] (2.5 µM), 90%; in test [1] (5 µM) it was 55%; in test [1] (10 µM) it was 36%; in test [2] (0.65 µM), 96%. Besides, the cell viability in test [2] (1.25 µM) came to 98%; in test [2] (2.5 µM), 97%; in test [2] (5 µM), 100%; in test [2] (10 µM), 85%.
Take `CC(C)N(CCCNC(=O)Nc1ccc(C(C)(C)C)cc1)C[C@H]1O[C@@H](n2cc(Br)c3c(N)ncnc32)[C@H](O)[C@@H]1O` [SGC 0946]: the cell viability in test [1] (0.65 µM) was 89%; in test [1] (1.25 µM), 83%; in test [1] (2.5 µM) it was 78%; in test [1] (5 µM), 63%; in test [1] (10 µM), -1%; in test [2] (0.65 µM), 94%. Besides, the cell viability in test [2] (1.25 µM) came to 89%; in test [2] (2.5 µM) it was 79%; in test [2] (5 µM), 34%; in test [2] (10 µM) it was 1%.
Consider `CCn1c2ccccc2c2cc(CNCc3ccccc3OC)ccc21` [HLCL-61], for which the cell viability in test [1] (0.65 µM) was found to be 100%; in test [1] (1.25 µM), 100%; in test [1] (2.5 µM), 100%; in test [1] (5 µM), 89%; in test [1] (10 µM) it was 59%; in test [2] (0.65 µM), 97%. For the same molecule, the cell viability was found to be 99% in test [2] (1.25 µM), 100% in test [2] (2.5 µM), 100% in test [2] (5 µM) and 95% in test [2] (10 µM).
As for `CC(=O)c1c(C)c2cnc(Nc3ccc(N4CCNCC4)cn3)nc2n(C2CCCC2)c1=O`, the cell viability in test [1] (0.65 µM) turned out to be 79%; in test [1] (1.25 µM), 73%; in test [1] (2.5 µM), 70%; in test [1] (5 µM), 59%; in test [1] (10 µM) it was 41%; in test [2] (0.65 µM) it was 100%. The cell viability amounted to 100% in test [2] (1.25 µM), 100% in test [2] (2.5 µM), 100% in test [2] (5 µM) and 96% in test [2] (10 µM).
For the molecule `CNC(=O)c1cc(Oc2ccc(NC(=O)Nc3ccc(Cl)c(C(F)(F)F)c3)cc2)ccn1` [Sorafenib], the cell viability turned out to be 100% in test [1] (0.65 µM); 98% in test [1] (1.25 µM); 92% in test [1] (2.5 µM); 84% in test [1] (5 µM); 72% in test [1] (10 µM); 100% in test [2] (0.65 µM). The cell viability was determined as 99% in test [2] (1.25 µM), 100% in test [2] (2.5 µM), 98% in test [2] (5 µM) and 93% in test [2] (10 µM).
On to `CCCCCCCCCCCC1=C(O)C(=O)C=C(O)C1=O` [Embelin], for which the cell viability in test [1] (0.65 µM) is 89%; in test [1] (1.25 µM), 84%; in test [1] (2.5 µM), 75%; in test [1] (5 µM), 57%; in test [1] (10 µM) it was 28%; in test [2] (0.65 µM), 89%. The cell viability in test [2] (1.25 µM) was 90%; in test [2] (2.5 µM) it was 90%; in test [2] (5 µM) it was 89%; in test [2] (10 µM), 82%.
For the molecule `CCN(CC)CCCC(C)Nc1nc(C)cc(Nc2ccc3nc(C)cc(N)c3c2)n1` (stereo not given), the cell viability in test [1] (0.65 µM) worked out at 50%; in test [1] (1.25 µM), 54%; in test [1] (2.5 µM) it was 47%; in test [1] (5 µM), 50%; in test [1] (10 µM), 34%; in test [2] (0.65 µM), 80%. For the same molecule, the cell viability in test [2] (1.25 µM) amounted to 81%; in test [2] (2.5 µM), 90%; in test [2] (5 µM) it was 80%; in test [2] (10 µM) it was 73%.
